Test [1] has as its system astrocytic cultures. In words: RT-PCR of astrocytic cultures exposed to albumin. As to conditions: albumin for 24 h. Format: cell-based, rat. As to the method: Primary neuronal cortical cultures were prepared from embryonic day 18 rats as reported previously (Kaufer et al., 2004). Briefly, cells were dissociated with a papain solution for 20 min at 37° C., After the removal of the papain solution, the tissue was resuspended in growth medium [MEM with Earle's salts containing 2.5% B27 supplement, 0.1% mito serum extender, 5% fetal bovine serum (FBS), 20 mM glucose, and 5 mM L-glutamine] and dissociated by mechanical trituration. The cells were plated, and after 4 h in vitro the cell culture medium was replaced with neurobasal medium supplemented with 2% B27 supplement and 0.5 mM GlutaMAX™. The cells were maintained in 5% CO2 at 37° C. After 7 days in vitro, cytosine arabinofuranoside (AraC) (10 μM) was added to the cultures. After 10 days in vitro, the cells were incubated with 0.4 mM albumin for 24 h at 37° C. For astrocytic cultures, astrocytcs were isolated from the cerebral cortices of PO rat pups. Cells were dissociated with papain and mechanical trituration. The cells were cultured in high-glucose Dulbecco's modified eagle medium supplemented with 10% FBS and 1% penicillin/streptomycin at 37° C. and in 5% C02 (medium was replaced every 3-4 days). After 10 days in vitro, the culture medium was replaced with serum-free high-glucose DMEM (containing 1% penicillin/streptomycin) for 18 h. The cells were then incubated in scrum-free medium containing 0.4 mM albumin for 24 h at 37° C. For immunostainings cells were washed with phosphate buffered saline (PBS) and fixed in 4% paraformaldehyde for 15 min. The cells were permeabilized with 0.2% Triton X-100 in PBS for 5 min and washed in PBS. They were then incubated with 5% normal donkey serum in PBS for one hour at room temperature followed by overnight incubation at 4° C. with either mouse anti-NeuN (1:1000: Chemicon, Temecula, Calif.) or mouse anti-GFAP (1:1000: Cell Signaling Technology, Beverly, Mass.). The cells were washed in PBS, incubated with donkey anti-mouse Cy3 (1:1000; Jackson ImmunoResearch. West Grove, Pa.) for 1 hour at room temperature, and then counterstained with DAPI.
Total RNA was isolated from the somatosensory cortices of animals treated with DOC or albumin (24 h treatment; n=3) or from primary cultures (astrocytic and neuronal, n=3 independent experiments). Expression levels were determined by real-time reverse transcriptase-PCR (RT-PCR) with an iQ5 detection system (Bio-Rad, Hercules, Calif.) using gene-specific primer pairs. RT-PCR data were analyzed using the PCR Miner program (Zhao and Fernald, 2005), and fold changes in gene expression were represented relative to sham-operated controls (in-vivo samples) or serum-deprived controls (in-vitro, samples). Ribosomal 18S RNA (18S rRNA) was used as an internal control for variations in sample preparation. For samples from in-vivo treatments, RT-PCR was performed with the iScript one-step RT-PCR kit (Bio-Rad). Control RT-PCR reactions were performed without reverse transcriptase to verify amplification of genomic DNA. For in-vitro samples, DNase treatment was applied, followed by first-strand cDNA synthesis (iScript cDNA Synthesis kit, Bio-Rad). PCR reactions were carried out with iQ SYBR Green Supermix (Bio-Rad). Primer specificity was verified by melt curve analysis. The amplification cycles for 18S, Gja1, GS, SLC1A2, SLC1A3 (GLAST) and Kenj10 consisted of 40 cycles of 10 s at 95° C., 30 s at 55° C., and 30 s at 72° C. […]

Test [2] addresses T1, TGF-βRII (Rattus norvegicus, UniProt P38438).
T1 construct: brains were isolated from adult Wistar rats, dissected in cold saline solution and lysed in RIPA buffer; from tissue; host or cells: adult Wistar rat brain cortex lysate (RIPA buffer)
T1 sequence (P38438 24-567): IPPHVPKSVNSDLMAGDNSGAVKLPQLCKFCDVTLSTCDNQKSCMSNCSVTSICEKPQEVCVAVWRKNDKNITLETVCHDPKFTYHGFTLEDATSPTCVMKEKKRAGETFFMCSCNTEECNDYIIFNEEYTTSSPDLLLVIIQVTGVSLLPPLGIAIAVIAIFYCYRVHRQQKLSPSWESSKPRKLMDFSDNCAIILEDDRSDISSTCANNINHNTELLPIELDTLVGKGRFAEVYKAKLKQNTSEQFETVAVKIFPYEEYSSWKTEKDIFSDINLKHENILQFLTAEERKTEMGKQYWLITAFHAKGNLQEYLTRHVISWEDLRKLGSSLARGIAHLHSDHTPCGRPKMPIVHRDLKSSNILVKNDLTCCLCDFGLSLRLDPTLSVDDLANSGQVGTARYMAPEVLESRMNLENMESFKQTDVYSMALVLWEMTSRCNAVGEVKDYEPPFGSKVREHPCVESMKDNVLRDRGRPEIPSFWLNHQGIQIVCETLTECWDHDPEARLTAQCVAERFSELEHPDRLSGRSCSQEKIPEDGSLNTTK
Description: Albumin and TGF-βRII co-immunoprecipitation in cortical lysates. Format: binding. As to conditions: cortical lysate pre-incubated with albumin. As to the method:
To prepare cortical lysates, brains were isolated from adult Wistar rats, dissected in cold saline solution and lysed in RIPA buffer. BSA (3 μg) was added to lysates to approximately match the amount of precipitating anti-albumin antibodies. Immunoprecipitation was performed using the Catch and Release® v2.0 Reversible Immunoprecipitation System (Upstate, Charlottesville, Va.) with the following modifications to the standard protocol: the starting amount of protein was increased to 1,500 μg and the incubation time with precipitating antibodies was increased to 90 minutes. […]
The immunoprecipitated samples were separated with SDS-PAGE and transferred onto a nitrocellulose membrane. […] TGF-βRII was detected with a rabbit anti-TGF-βRII antibody (Upstate) and an AP-conjugated donkey anti-rabbit IgG secondary antibody (Jackson ImmunoResearch Laboratories, West Grove, Pa.). […]
To determine whether albumin binds to TGF-β receptors, co-immunoprecipitation using antibodies against albumin or TGF-βRII was performed on cortical lysate samples treated with albumin. An expected hand corresponding to TGF-βRII was detected in samples immunoprecipitated with the TGF-βRII antibody. More importantly, this band was also detected in samples pre-incubated with albumin when immunoprecipitated with the albumin antibody and probed for TGF-βRII (FIG. 2a). […]

With “albumin: bovine serum albumin, used to induce epileptogenesis”, in test [1], the GS transcript expression entry is listed as “significant down-regulation”, the Gja1 transcript expression entry is recorded as “significant down-regulation”, the Gjb2 transcript expression result is on record as “significant down-regulation” and the Gjb6 transcript expression result is listed as “significant down-regulation”. Moreover, the S1C1A3 transcript expression entry in test [1] was “significant down-regulation”. The “interaction with TGF-βRII (co-immunoprecipitation)” value in test [2] is on record as “direct interaction”.

For the origin of these results see patent US10668049B2, “Methods of treating cognitive decline with transforming growth factor beta inhibitors” (The Regents of the University of California, priority 2008, dated 2020).
